{
  "source": "paper PMC10267561",
  "about": "“PI3P-dependent regulation of cell size and autophagy by phosphatidylinositol 5-phosphate 4-kinase” (Life Science Alliance, 2023)",
  "target": "T1, Mtm (Mtm^WT::GFP) (Drosophila melanogaster, UniProt Q9VMI9)",
  "T1 construct": "C-terminal GFP tag, overexpressed (da-Gal4) in third instar larvae, whole larval lysate; ~100 kD",
  "T1 sequence (Q9VMI9 1-619)": "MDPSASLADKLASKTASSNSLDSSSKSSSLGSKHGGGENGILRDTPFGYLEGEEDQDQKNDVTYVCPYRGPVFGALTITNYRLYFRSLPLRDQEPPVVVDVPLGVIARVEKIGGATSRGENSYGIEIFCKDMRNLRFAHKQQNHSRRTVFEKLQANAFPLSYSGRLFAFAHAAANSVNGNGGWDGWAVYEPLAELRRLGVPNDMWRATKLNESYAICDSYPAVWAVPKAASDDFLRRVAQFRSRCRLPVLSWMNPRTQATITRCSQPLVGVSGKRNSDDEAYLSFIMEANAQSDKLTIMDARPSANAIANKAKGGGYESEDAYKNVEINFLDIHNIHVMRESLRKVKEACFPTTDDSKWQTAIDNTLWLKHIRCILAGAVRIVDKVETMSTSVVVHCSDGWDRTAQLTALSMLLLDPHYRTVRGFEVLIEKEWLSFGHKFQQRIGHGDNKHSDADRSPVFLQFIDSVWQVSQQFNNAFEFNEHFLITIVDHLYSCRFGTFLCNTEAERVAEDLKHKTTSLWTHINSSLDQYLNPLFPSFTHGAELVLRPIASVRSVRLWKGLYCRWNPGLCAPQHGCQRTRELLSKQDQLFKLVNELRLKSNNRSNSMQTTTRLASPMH",
  "experiment": "LC-MS/MS in vitro 3-phosphatase assay, overexpressing larval lysate vs control lysate",
  "format": "biochemical",
  "details": "pH 7.4 lipid suspension, phosphatidylserine, 15 min, 37 °C; 10 ug lysate protein",
  "data": [
    {"molecule": "CCCCC/C=C\\C/C=C\\C/C=C\\C/C=C\\CCCC(=O)O[C@H](COC(=O)CCCCCCCCCCCCCCCC)COP(=O)(O)O[C@@H]1[C@H](O)[C@H](OP(=O)(O)O)[C@@H](O)[C@H](O)[C@H]1O", "note": "[17:0 20:4 PI3P]", "values": [
      {"measurement": "3-phosphatase activity, overexpressing vs control lysate", "value": "lysates with Mtm overexpression showed significantly higher PI3P 3-phosphatase activity compared with control lysates"}
    ]}
  ]
}
